Measured values taken from patent US6906095B2, “Indolylalkylidenehydrazine-carboximidamide derivatives as 5-hydroxytryptamine-6 ligands” (Wyeth, priority 2002, dated 2005).

Each compound was assayed against T1, human cloned 5-HT6 receptors (Homo sapiens, UniProt P50406) (assay: 5-HT6 binding affinity, [3H]-LSD displacement in membranes of Hela cells). Settings: not given.
T1 construct: expressed in transfected cells; host or cells: Hela cells
Description: The affinity of test compounds for the serotonin 5-HT6 receptor is evaluated in the following manner. Cultured Hela cells expressing human cloned 5-HT6 receptors are harvested and centrifuged at low speed (1,000×g) for 10.0 min to remove the culture media. The harvested cells are suspended in half volume of fresh physiological phosphate buffered saline solution and recentrifuged at the same speed. This operation is repeated. The collected cells are then homogenized in ten volumes of 50 mM Tris.HCl (pH 7.4) and 0.5 mM EDTA. The homogenate is centrifuged at 40,000×g for 30.0 min and the precipitate is collected. The obtained pellet is resuspended in 10 volumes of Tris.HCl buffer and recentrifuged at the same speed. The final pellet is suspended in a small volume of Tris.HCl buffer and the tissue protein content is determined in aliquots of 10-25 μl volumes. Bovine Serum Albumin is used as the standard in the protein determination according to the method described in Lowry et al., J. Biol. Chem., 193:265 (1951). The volume of the suspended cell membranes is adjusted to give a tissue protein concentration of 1.0 mg/ml of suspension. The prepared membrane suspension (10 times concentrated) is aliquoted in 1.0 ml volumes and stored at −70° C. until used in subsequent binding experiments.
The reaction is allowed to proceed in the dark for 120 min at room temperature, at which time, the bound ligand-receptor complex is filtered off on a 96 well unifilter with a Packard Filtermate® 196 Harvester. The bound complex caught on the filter disk is allowed to air dry and the radioactivity is measured in a Packard TopCount® equipped with six photomultiplier detectors, after the addition of 40.0 μl Microscint®-20 scintillant to each shallow well. The unifilter plate is heat-sealed and counted in a PackardTopCount® with a tritium efficiency of 31.0%.
Specific binding to the 5-HT6 receptor is defined as the total radioactivity bound less the amount bound in the presence of 10.0 μM unlabeled methiothepin. Binding in the presence of varying concentrations of test compound is expressed as a percentage of specific binding in the absence of test compound. The results are plotted as logit % bound versus log concentration of test compound. Nonlinear regression analysis of data points with a computer assisted program Prism® yields both the IC50 and the Ki values of test compounds with 95% confidence limits.
The amount of displacement by the test compound is given in percent (%) inhibition and is derived from the following equation: [formula] where B0 is the amount of CPM bound in the presence of the testing agent. NSB represents the CPM bound in the presence of a saturating concentration of a displacer and TB represents the total amount of CPM bound at zero (0) concentration of test compound.
Alternatively, a linear regression line of decline of data points is plotted, from which the IC50 value can be read off and the Ki value determined by solving the following equation: [formula] where L is the concentration of the radioactive ligand used and KD is the dissociation constant of the ligand for the receptor, both expressed in nM.

T1 sequence (P50406 whole entry): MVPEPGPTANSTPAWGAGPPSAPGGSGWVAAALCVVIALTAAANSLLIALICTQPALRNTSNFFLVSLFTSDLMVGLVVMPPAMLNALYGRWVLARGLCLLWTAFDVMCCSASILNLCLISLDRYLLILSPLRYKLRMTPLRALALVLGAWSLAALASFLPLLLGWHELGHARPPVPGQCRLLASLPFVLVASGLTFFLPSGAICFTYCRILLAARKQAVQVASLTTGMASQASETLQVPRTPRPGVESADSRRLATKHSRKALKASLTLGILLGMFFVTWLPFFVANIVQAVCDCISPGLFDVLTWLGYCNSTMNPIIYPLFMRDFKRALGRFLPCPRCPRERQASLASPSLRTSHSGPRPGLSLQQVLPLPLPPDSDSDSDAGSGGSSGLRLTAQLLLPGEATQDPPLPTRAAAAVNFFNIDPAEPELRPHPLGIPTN

| SMILES | Ki [µM] |
| --- | --- |
| CC(=NNC(=N)N)c1cn(S(=O)(=O)c2cn(C)cn2)c2ccccc12 [Example 47, 2-(1-{1-[(1-methyl-1H-imidazol-4-yl)sulfonyl]-1H-indol-3-yl}ethylidene)hydrazinecarboximidamide] | 0.046 |
| N=C(N)NN=C(Cc1ccccc1)c1cn(S(=O)(=O)c2ccccc2)c2ccccc12 [Example 6, 2-{2-phenyl-1-[1-(phenylsulfonyl)-1H-indol-3-yl]ethylidene}hydrazinecarboximidamide] | 0.011 |
| CC(=NNC(=N)N)c1cn(S(=O)(=O)c2ccccc2)c2ccccc12 [Example 9, 2-{1-[1-(phenylsulfonyl)-1H-indol-3-yl]ethylidene}hydrazinecarboximidamide] | 0.007 |
| CC(=NNC(=N)N)c1cn(S(=O)(=O)c2ccc(F)cc2)c2ccccc12 [Example 44, 2-(1-{1-[(4-fluorophenyl)sulfonyl]-1H-indol-3-yl}ethylidene)hydrazinecarboximidamide] | 0.033 |
| CCC(=NNC(=N)N)c1cn(S(=O)(=O)c2ccc3ccccc3c2)c2ccc(F)cc12 [Example 120, 2-{1-[5-fluoro-1-(2-naphthylsulfonyl)-1H-indol-3-yl]propylidene}hydrazinecarboximidamide] | 0.085 |

Same assay, conditions: test compound dose 10 nM; [3H]-LSD 3.0 nM

| SMILES | inhibition at 0.01 µM [%] |
| --- | --- |
| N=C(N)NN=C(c1cn(S(=O)(=O)c2ccccc2)c2ccccc12)C1CC1 [Example 68, 2-{cyclopropyl[1-(phenylsulfonyl)-1H-indol-3-yl]methylidene}hydrazinecarboximidamide] | 68.3 |
| CS(=O)(=O)n1cc(C(=NNC(=N)N)C2CC2)c2ccc(F)cc21 [Example 102, 2-{cyclopropyl[6-fluoro-1-(methylsulfonyl)-1H-indol-3-yl]methylidene}hydrazinecarboximidamide] | 41.1 |

Same assay, conditions: test compound dose 100 nM; [3H]-LSD 3.0 nM

| SMILES | inhibition at 0.1 µM [%] | % Inhibition [%] |
| --- | --- | --- |
| CS(=O)(=O)n1cc(C(=NNC(=N)N)C2CC2)c2cc(Cl)ccc21 [Example 74, 2-[[5-chloro-1-(methylsulfonyl)-1H-indol-3-yl](cyclopropyl)methylidene]hydrazinecarboximidamide] | 68.5 |  |
| CCCCC(=NNC(=N)N)c1cn(S(=O)(=O)c2ccccc2)c2ccc(Cl)cc12 [Example 85, 2-{1-[5-chloro-1-(phenylsulfonyl)-1H-indol-3-yl]pentylidene}hydrazinecarboximidamide] | 57.5 |  |
| CC(=NNC(=N)N)c1c(-c2ccccc2)n(S(=O)(=O)c2ccccc2)c2ccccc12 [Example 15, 2-{1-[2-phenyl-1-(phenylsulfonyl)-1H-indol-3-yl]ethylidene}hydrazinecarboximidamide] | 67.1 |  |
| CC(=NNC(=N)N)c1cn(S(=O)(=O)c2ccccc2)c2ccc([N+](=O)[O-])cc12 [Example 18, 2-{1-[5-nitro-1-(phenylsulfonyl)-1H-indol-3-yl]ethylidene}hydrazinecarboximidamide] | 77.9 |  |
| CC(=NNC(=N)N)c1cn(C(=O)c2ccccc2)c2ccccc12 [Example 130, 2-[1-(1-benzoyl-1H-indol-3-yl)ethylidene]hydrazinecarboximidamide] | 49.6 |  |
| CC(=NNC(=N)N)c1cn(S(=O)(=O)c2ccc(-c3cc(C(F)(F)F)n(C)n3)s2)c2ccccc12 [Example 45, 2-{1-[1-({5-[1-methyl-5-(trifluoromethyl)-1H-pyrazol-3-yl]thien-2-yl}sulfony)-1H-indol-3-yl]ethylidene}hydrazinecarboximidamide] |  | 23.5 |
| CCCCS(=O)(=O)n1cc(C(C)=NNC(=N)N)c2ccc(F)cc21 [Example 103, 2-{1-[1-(butylsulfonyl)-6-fluoro-1H-indol-3-yl]ethylidene}hydrazinecarboximidamide] | 69.4 |  |
| CC(=NNC(=N)N)c1cn(S(=O)(=O)c2cccc3ccccc23)c2ccccc12 [Example 50, 2-{1-[1-(1-naphthylsulfonyl)-1H-indol-3-yl]ethylidene}hydrazinecarboximidamide] | 63.5 |  |
| CC(=NNC(=N)N)c1cn(S(=O)(=O)c2ccc(S(C)(=O)=O)cc2)c2ccccc12 [Example 48, 2-[1-(1-{[4-(methylsulfonyl)phenyl]sulfonyl}-1H-indol-3-yl)ethylidene]hydrazinecarboximidamide] | 43.9 |  |
| CCCCS(=O)(=O)n1cc(C(=NNC(=N)N)C2CC2)c2ccccc21 [Example 60, 2-[[1-(butylsulfonyl)-1H-indol-3-yl](cyclopropyl)methylidene]hydrazinecarboximidamide] | 62.6 |  |
| COc1ccc(S(=O)(=O)n2cc(C(=NNC(=N)N)C3CC3)c3ccccc32)cc1OC [Example 71, 2-(cyclopropyl{1-[(3,4-dimethoxyphenyl)sulfonyl]-1H-indol-3-yl}methylidene)hydrazinecarboximidamide] | 61.5 |  |
| CC(=NNC(=N)N)c1cn(S(=O)(=O)c2cn(C)cn2)c2ccccc12 [Example 47, 2-(1-{1-[(1-methyl-1H-imidazol-4-yl)sulfonyl]-1H-indol-3-yl}ethylidene)hydrazinecarboximidamide] | 81.1 |  |
| CC(=NNC(=N)NCc1ccccn1)c1cn(S(=O)(=O)c2ccccc2)c2ccccc12 [Example 126, 2-{1-[1-(phenylsulfonyl)-1H-indol-3-yl]ethylidene}-N-(pyridin-2-ylmethyl)hydrazinecarboximidamide] | 37.7 |  |
| CC(=NNC(=N)NCc1ccccc1)c1cn(S(=O)(=O)c2ccccc2)c2ccccc12 [Example 125, N-benzyl-2-{1-[1-(phenylsulfonyl)-1H-indol-3-yl]ethylidene}hydrazinecarboximidamide] | 39.1 |  |
| N=C(N)NN=C(c1cn(S(=O)(=O)c2ccccc2)c2ccc(Cl)cc12)C1CC1 [Example 86, 2-[[5-chloro-1-(phenylsulfonyl)-1H-indol-3-yl](cyclopropyl)methylidene]hydrazinecarboximidamide] | 78.1 |  |
| CC(=NNC(=N)N)c1cn(S(=O)(=O)c2ccc(F)cc2)c2ccccc12 [Example 44, 2-(1-{1-[(4-fluorophenyl)sulfonyl]-1H-indol-3-yl}ethylidene)hydrazinecarboximidamide] | 75.5 |  |

Same assay, conditions: test compound dose 1000 nM; [3H]-LSD 3.0 nM; read-out: % Inhibition

| SMILES | inhibition at 1 µM [%] |
| --- | --- |
| Cc1ccc(S(=O)(=O)n2cc(C=NNC3=NCCCN3)c3ccccc32)cc1 [Example 1, 1-[(4-methylphenyl)sulfonyl]-1H-indole-3-carboxaldehyde 1,4,5,6-tetrahydropyrimidin-2-ylhydrazone] | 56 |
| CCCCC(=NNC(=N)N)c1cn(S(C)(=O)=O)c2cc(F)ccc12 [Example 101, 2-{1-[6-fluoro-1-(methylsulfonyl)-1H-indol-3-yl]pentylidene}hydrazinecarboximidamide] | 77.4 |
| CC(=NNC(=N)N)c1c(-c2ccc(Cl)cc2)n(S(C)(=O)=O)c2ccccc12 [Example 90, 2-{1-[2-(4-chlorophenyl)-1-(methylsulfonyl)-1H-indol-3-yl]ethylidene}hydrazinecarboximidamide] | 63.5 |
| CCCCC(=NNC(=N)N)c1cn(S(=O)(=O)CCCC)c2ccc(Cl)cc12 [Example 76, 2-{1-[1-(butylsulfonyl)-5-chloro-1H-indol-3-yl]pentylidene}hydrazinecarboximidamide] | 74.5 |
| CCCCC(=NNC(=N)N)c1cn(S(=O)(=O)c2ccc(OC)c(OC)c2)c2ccccc12 [Example 70, 2-(1-{1-[(3,4-dimethoxyphenyl)sulfonyl]-1H-indol-3-yl}pentylidene)hydrazinecarboximidamide] | 89.8 |
| CCCCC(=NNC(=N)N)c1cn(S(=O)(=O)CCCC)c2ccccc12 [Example 59, 2-{1-[1-(butylsulfonyl)-1H-indol-3-yl]pentylidene}hydrazinecarboximidamide] | 77.7 |
| CCCCC(=NNC(=N)N)c1cn(S(=O)(=O)c2ccc(OC)cc2)c2ccccc12 [Example 62, 2-(1-{1-[(4-methoxyphenyl)sulfonyl]-1H-indol-3-yl}pentylidene)hydrazinecarboximidamide] | 68.3 |
| N=C(N)NN=C(Cc1ccccc1)c1cn(S(=O)(=O)c2ccccc2)c2ccccc12 [Example 6, 2-{2-phenyl-1-[1-(phenylsulfonyl)-1H-indol-3-yl]ethylidene}hydrazinecarboximidamide] | 97.8 |
| CC(=NNC(=N)N)c1c(-c2ccc(Cl)cc2)n(S(=O)(=O)c2ccccc2)c2ccccc12 [Example 95, 2-{1-[2-(4-chlorophenyl)-1-(phenylsulfonyl)-1H-indol-3-yl]ethylidene}hydrazinecarboximidamide] | 89.6 |
| CC(=NNC(=N)N)c1cn(S(=O)(=O)c2ccccc2)c2ccccc12 [Example 9, 2-{1-[1-(phenylsulfonyl)-1H-indol-3-yl]ethylidene}hydrazinecarboximidamide] | 99.5 |
| CC(=NNC(=N)N)c1cn(S(=O)(=O)c2ccc3ccccc3c2)c2ccccc12 [Example 64, 2-{1-[1-(2-naphthylsulfonyl)-1H-indol-3-yl]ethylidene}hydrazinecarboximidamide] | 89.6 |
